Laboratory results taken from publication PMC8826726, “Selective Toxicity of Secondary Metabolites from the Entomopathogenic Bacterium Photorhabdus luminescens sonorensis against Selected Plant Parasitic Nematodes of the Tylenchina Suborder” (Microbiology Spectrum, 2022).
In brackets after ≈: the same amount, converted by molar mass. Where two headings read alike, the source gives them in different places.

Key:
Format in all cases: cell-based
[1] = tested on: Meloidogyne incognita J2 juveniles; test: In vitro nematistatic assay (temporary paralysis)
[2] = tested on: Tylenchulus semipenetrans J2 juveniles; test: In vitro nematistatic assay (temporary paralysis); settings: for EC50 / EC90 / EC10 / EC25: temporary paralysis
C. elegans = test: In vitro nematistatic assay (temporary paralysis), non-target species; settings: Caenorhabditis elegans; reversible paralysis, 24 h exposure
S. carpocapsae = test: as above; settings: Steinernema carpocapsae; reversible paralysis, 24 h exposure
H. bacteriophora = test: as above; settings: Heterorhabditis bacteriophora; reversible paralysis, 24 h exposure

## c1ccc2[nH]ccc2c1 [Indole, indole]
[1]; 24 h exposure
  EC10: 41.3 (36.8, 44.9) μg/mL
  EC25: 47.8 (43.9, 51.1) μg/mL
  EC50: 56.3 µg/mL (≈ 481 µM)
[1]; 48 h exposure
  EC10: 44.3 (36.8, 49.7) μg/mL
  EC25: 51.7 (45.0, 56.6) μg/mL
[1]; 72 h exposure
  EC10: 62.9 (31.4, 72.3) μg/mL
  EC25: 68.9 (42.1, 76.9) μg/mL
[1]; Meloidogyne incognita, 24 h, 24 h exposure, read-out: EC50
  EC50: 56 µg/mL (≈ 478 µM)
[1]; Meloidogyne incognita, 24 h exposure
  EC90: 77 µg/mL (≈ 657 µM)
[1]; Meloidogyne incognita, 48 h, 48 h exposure, read-out: EC50
  EC50: 61.3 µg/mL (≈ 523 µM)
[1]; Meloidogyne incognita, 48 h exposure
  EC90: 84.7 µg/mL (≈ 723 µM)
[1]; Meloidogyne incognita, 72 h, 72 h exposure, read-out: EC50
  EC50: 76.3 µg/mL (≈ 651 µM)
[1]; Meloidogyne incognita, 72 h exposure
  EC90: 92.5 µg/mL (≈ 790 µM)
[2]; 24 h of exposure
  Reduction of EC50 for T. semipenetrans versus M. incognita: 34%
[2]; T. semipenetrans
  Increase of EC50 at 72 h compared with 24 h: 84%
  Increase of EC90 at 72 h compared with 24 h: 79%
[2]; Tylenchulus semipenetrans, 24 h, 24 h exposure, read-out: EC50
  EC50: 37 µg/mL (≈ 316 µM)
[2]; Tylenchulus semipenetrans, 48 h, 48 h exposure, read-out: EC50
  EC50: 66.2 µg/mL (≈ 565 µM)
[2]; Tylenchulus semipenetrans, 72 h, 72 h exposure, read-out: EC50
  EC50: 68.3 µg/mL (≈ 583 µM)
[2]; Tylenchulus semipenetrans, 24 h exposure
  EC90: 64.2 µg/mL (≈ 548 µM)
[2]; Tylenchulus semipenetrans, 48 h exposure
  EC90: 108 µg/mL (≈ 922 µM)
[2]; Tylenchulus semipenetrans, 72 h exposure
  EC90: 115 µg/mL (≈ 982 µM)
[2]; 24 h exposure
  EC10: 21.4 (12.8, 27.9) μg/mL
  EC25: 27.8 (18.9, 34.2) μg/mL
  EC50: 37.1 µg/mL (≈ 317 µM)
[2]; 48 h exposure
  EC10: 40.6 (8.18, 57.5) μg/mL
  EC25: 51.2 (16.1, 67.0) μg/mL
[2]; 72 h exposure
  EC10: 40.5 (13.1, 55.8) μg/mL
  EC25: 51.9 (23.3, 66.0) μg/mL
C. elegans
  EC50: 159 µg/mL (≈ 1360 µM)
S. carpocapsae
  EC50: > 400 µg/mL
H. bacteriophora
  EC50: > 400 µg/mL
